pKi: −log10 of the molar value. Where two headings read alike, the source gives them in different places.
Experiments:
rat orexin 1 receptor = rat orexin 1 receptor (Rattus norvegicus, UniProt P56718); experiment: Rat orexin 1 receptor radioligand binding (competitive, [3H]-SB674042, HEK293 cell preparations)
human orexin 2 receptor = human orexin 2 receptor (Homo sapiens (Human), UniProt O43614); experiment: Human orexin 2 receptor radioligand binding (competitive, [3H]-EMPA, HEK293 cell preparations)
[1] = rat orexin 1 receptor, [3H]-SB674042 competition binding, read-out: rOX1 Ki (nm)
[2] = human orexin 2 receptor, [3H]-EMPA competition binding, read-out: hOX2 Ki (nm)

Sequence of human orexin 2 receptor (O43614 whole entry): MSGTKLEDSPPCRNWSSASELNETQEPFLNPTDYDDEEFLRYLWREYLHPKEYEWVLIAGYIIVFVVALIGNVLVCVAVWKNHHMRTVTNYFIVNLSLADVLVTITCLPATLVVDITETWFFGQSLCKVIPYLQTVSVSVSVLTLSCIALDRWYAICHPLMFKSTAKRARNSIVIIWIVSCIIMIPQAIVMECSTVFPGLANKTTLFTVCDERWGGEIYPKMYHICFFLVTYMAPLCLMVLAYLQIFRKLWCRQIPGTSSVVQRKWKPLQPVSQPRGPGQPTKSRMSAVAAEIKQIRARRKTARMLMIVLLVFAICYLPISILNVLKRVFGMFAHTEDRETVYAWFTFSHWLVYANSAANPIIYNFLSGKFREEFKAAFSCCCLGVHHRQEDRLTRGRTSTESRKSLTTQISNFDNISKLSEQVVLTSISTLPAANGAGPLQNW

Row | SMILES | pKi (rat orexin 1 receptor; [1]) | pKi (human orexin 2 receptor; hOX2 Ki (nm)) | pKi (human orexin 2 receptor; [2]) | pKi (rat orexin 1 receptor; rOX1 Ki (nm))
1 | Cc1ccc(N2CCNCC2)c(C(=O)N2C3CCC2C(COc2ccccn2)C3)n1 (racemic) [Example 86, (±)-(6-methyl-3-(piperazin-1-yl)pyridin-2-yl)(2-((pyridin-2-yloxy)methyl)-7-azabicyclo[2.2.1]heptan-7-yl)methanone] | < 5.00 | < 5.00 |  | 
2 | Cc1ccc(C(=O)N2[C@@H]3CC[C@H]2[C@H](Nc2cnc(C(F)(F)F)cn2)C3)c(-n2nccn2)n1 [Example 247, (6-methyl-2-(2H-1,2,3-triazol-2-yl)pyridin-3-yl)((1S,2R,4R)-2-((5-(trifluoromethyl)pyrazin-2-yl)amino)-7-azabicyclo[2.2.1]heptan-7-yl)methanone] | 6.38 |  | 5.95 | 
3 | Cc1cccc(C(=O)N2[C@@H]3CC[C@H]2[C@H](Nc2cnc(C(F)(F)F)cn2)C3)c1-c1ncco1 [Example 266, (3-methyl-2-(oxazol-2-yl)phenyl)((1S,2R,4R)-2-((5-(trifluoromethyl)pyrazin-2-yl)amino)-7-azabicyclo[2.2.1]heptan-7-yl)methanone] | 8.30 |  | 6.92 | 
4 | Cc1ccc(N2CCOCC2)c(C(=O)N2[C@@H]3CC[C@H]2[C@H](COc2ccccn2)C3)n1 (racemic) [Example 87, (±)-(6-methyl-3-morpholinopyridin-2-yl)((1S,2R,4R)-2-((pyridin-2-yloxy)methyl)-7-azabicyclo[2.2.1]heptan-7-yl)methanone] | 5.38 | < 5.00 |  | 
5 | CCOc1ccc(C)nc1C(=O)N1C2CCC1C(COc1ccc(C(F)(F)F)cn1)C2 (racemic) [Example 48, (±)-(3-ethoxy-6-methylpyridin-2-yl)(2-(((5-(trifluoromethyl)pyridin-2-yl)oxy)methyl)-7-azabicyclo[2.2.1]heptan-7-yl)methanone] | 5.41 | 5.33 |  | 
6 | Cc1nc2sccn2c1C(=O)N1C2CCC1C(COc1ccccn1)C2 (racemic) [Example 156, (±)-(6-methylimidazo[2,1-b]thiazol-5-yl)(2-((pyridin-2-yloxy)methyl)-7-azabicyclo[2.2.1]heptan-7-yl)methanone] | < 5.00 |  | < 5.00 | 
7 | COc1c(F)cccc1C(=O)N1C2CCC1C(Nc1ccc(F)cn1)C2 (racemic) [Example 237, (±)-(3-fluoro-2-methoxyphenyl)(2-(((5-fluoropyridin-2-yl)amino)-7-azabicyclo[2.2.1]heptan-7-yl)methanone] |  | < 5.00 |  | < 5.00
8 | CCOc1ccc(C)nc1C(=O)N1C2CCC1C(COc1ccc(Br)cn1)C2 (racemic) [Example 51, (±)-(2-(((5-bromopyridin-2-yl)oxy)methyl)-7-azabicyclo[2.2.1]heptan-7-yl)(3-ethoxy-6-methylpyridin-2-yl)methanone] |  | 5.74 |  | 6.01
9 | COc1c(F)cccc1C(=O)N1C2CCC1C(Nc1ccc(Br)cn1)C2 (racemic) [Example 218, (±)-(2-((5-bromopyridin-2-yl)amino)-7-azabicyclo[2.2.1]heptan-7-yl)(3-fluoro-2-methoxyphenyl)methanone] |  |  | 5.17 | 5.57
10 | Cn1ncc(-c2ccccc2)c1C(=O)N1C2CCC1C(COc1ccccn1)C2 (racemic) [Example 81, (±)-(1-methyl-4-phenyl-1H-pyrazol-5-yl)(2-((pyridin-2-yloxy)methyl)-7-azabicyclo[2.2.1]heptan-7-yl)methanone] | 6.04 |  | 5.54 | 
11 | Cc1coc(-c2ccc(C)nc2C(=O)N2[C@@H]3CC[C@H]2[C@H](COc2ccccn2)C3)n1 [Example 178, (6-methyl-3-(4-methyloxazol-2-yl)pyridin-2-yl)((1S,2R,4R)-2-((pyridin-2-yloxy)methyl)-7-azabicyclo[2.2.1]heptan-7-yl)methanone] | 6.02 |  | < 5.00 | 
12 | Cc1ccc(-c2ncccn2)c(C(=O)N2C3CCC2C(COc2ncc(F)cn2)C3)n1 (racemic) [Example 175, (±)-(2-(((5-fluoropyrimidin-2-yl)oxy)methyl)-7-azabicyclo[2.2.1]heptan-7-yl)(6-methyl-3-(pyrimidin-2-yl)pyridin-2-yl)methanone] |  |  | 5.40 | 5.60
